# Measured values as given in patent US20180194762A1 (Pharmacyclics LLC, priority 2017, published 2018).
# Experiments:
# Assay type in all cases: biochemical
# [1] = target: T1, panel of kinases (Homo sapiens, UniProt P51813); assay: Inhibition of a panel of kinases (in vitro HotSpot kinase assay, 33P-ATP, 1 μM ATP), other kinases; conditions: BMX wild-type, read-out: BMX-WT IC50
# T1 sequence (P51813 1-675): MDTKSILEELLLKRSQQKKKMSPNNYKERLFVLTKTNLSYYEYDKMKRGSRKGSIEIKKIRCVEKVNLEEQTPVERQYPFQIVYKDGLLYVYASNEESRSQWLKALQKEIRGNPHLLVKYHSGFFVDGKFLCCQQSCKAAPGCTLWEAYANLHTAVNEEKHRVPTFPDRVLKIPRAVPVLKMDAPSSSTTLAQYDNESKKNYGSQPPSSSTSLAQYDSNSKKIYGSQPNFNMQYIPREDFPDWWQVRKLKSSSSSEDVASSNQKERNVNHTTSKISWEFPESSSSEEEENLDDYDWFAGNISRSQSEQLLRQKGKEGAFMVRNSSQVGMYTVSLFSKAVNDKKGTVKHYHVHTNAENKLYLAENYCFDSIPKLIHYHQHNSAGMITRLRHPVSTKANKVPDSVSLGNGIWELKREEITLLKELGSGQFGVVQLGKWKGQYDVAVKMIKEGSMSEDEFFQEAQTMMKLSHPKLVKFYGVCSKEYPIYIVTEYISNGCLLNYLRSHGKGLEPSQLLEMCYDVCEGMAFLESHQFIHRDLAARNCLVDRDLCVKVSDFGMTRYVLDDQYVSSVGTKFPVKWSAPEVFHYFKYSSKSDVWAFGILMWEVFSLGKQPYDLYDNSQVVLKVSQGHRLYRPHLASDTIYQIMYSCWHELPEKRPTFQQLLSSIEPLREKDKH
# Summary of the method: (§1)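 Radiometric read-out: 33P transfer to a suitable substrate by each purified enzyme, ATP at 1 μM. Values are degree of inhibition.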
# [2] = target: T2, TEC (Homo sapiens, UniProt P42680); assay: Inhibition of a panel of kinases (in vitro HotSpot kinase assay, 33P-ATP, 1 μM ATP); conditions: HotSpot kinase assay, 1 μM ATP
# T2 sequence (P42680 1-631): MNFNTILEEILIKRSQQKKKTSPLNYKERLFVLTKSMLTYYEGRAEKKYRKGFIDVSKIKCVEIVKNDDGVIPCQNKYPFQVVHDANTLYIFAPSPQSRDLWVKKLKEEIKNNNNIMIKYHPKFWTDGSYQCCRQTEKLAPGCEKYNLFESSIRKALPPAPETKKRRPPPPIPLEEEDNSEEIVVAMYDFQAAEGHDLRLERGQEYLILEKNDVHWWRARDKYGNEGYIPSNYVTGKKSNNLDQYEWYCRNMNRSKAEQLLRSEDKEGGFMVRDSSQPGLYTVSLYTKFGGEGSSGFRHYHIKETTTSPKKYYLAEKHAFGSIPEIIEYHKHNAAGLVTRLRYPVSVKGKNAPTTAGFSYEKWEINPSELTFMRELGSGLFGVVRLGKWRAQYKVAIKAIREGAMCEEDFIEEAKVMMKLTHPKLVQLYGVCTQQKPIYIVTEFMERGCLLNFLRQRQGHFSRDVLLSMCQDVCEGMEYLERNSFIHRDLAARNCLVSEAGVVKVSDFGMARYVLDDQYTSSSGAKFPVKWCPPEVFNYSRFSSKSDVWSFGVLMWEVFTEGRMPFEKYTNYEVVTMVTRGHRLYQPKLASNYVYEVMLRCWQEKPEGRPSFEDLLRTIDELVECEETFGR
# Summary of the method: as §1
# [3] = target: T3, Btk (Homo sapiens, UniProt Q06187); assay: Btk in vitro inhibitory activity (one of Method A TR-FRET, Method B electrophoretic mobility shift, Method C radiometric filter binding); conditions: wild-type Btk; read-out: Btk-WT IC50
# T3 construct: purified from insect cells as a full-length construct containing a N-terminal 6X-His tag; His6 (N); made in house; host or cells: insect cells (Method C)
# T3 sequence (Q06187 whole entry): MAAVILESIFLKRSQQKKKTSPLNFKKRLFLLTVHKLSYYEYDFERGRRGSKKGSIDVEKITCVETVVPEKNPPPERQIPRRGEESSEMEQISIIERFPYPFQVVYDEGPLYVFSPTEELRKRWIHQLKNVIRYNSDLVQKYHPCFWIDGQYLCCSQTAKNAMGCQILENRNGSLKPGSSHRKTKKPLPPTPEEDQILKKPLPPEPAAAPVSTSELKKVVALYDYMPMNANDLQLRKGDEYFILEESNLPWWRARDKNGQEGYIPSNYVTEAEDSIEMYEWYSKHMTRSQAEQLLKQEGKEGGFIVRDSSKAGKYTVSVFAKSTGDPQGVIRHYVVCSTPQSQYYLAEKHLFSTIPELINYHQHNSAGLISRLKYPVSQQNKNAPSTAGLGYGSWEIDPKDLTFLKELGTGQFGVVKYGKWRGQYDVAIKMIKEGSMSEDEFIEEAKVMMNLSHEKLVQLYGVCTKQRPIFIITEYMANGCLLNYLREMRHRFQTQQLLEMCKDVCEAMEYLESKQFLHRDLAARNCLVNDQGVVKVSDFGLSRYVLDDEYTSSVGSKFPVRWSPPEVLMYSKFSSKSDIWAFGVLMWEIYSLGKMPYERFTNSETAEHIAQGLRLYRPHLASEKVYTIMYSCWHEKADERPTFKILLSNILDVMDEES
# Summary of the method: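 Three alternative formats were used. A radiometric filter-binding read used 8 nM full-length His-BTK with 0.2 mg/mL poly(Glu-Tyr) 4:1 (C); microfluidic separation of 1 μM FAM-peptide by 1 nM BTK gave IC50 from 12-point curves (B); TR-FRET at Km ATP, 0.5 nM Btk, gave Ki(app)-derived IC50 (A).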
Compound,IC50 [1] [nM],IC50 [2] [nM],IC50 [3] [nM]
"CC(C)(C#N)c1cc(C(=O)NCc2ccc(-c3ccnc4[nH]nc(N5CC[C@@H](N)C5)c34)cc2F)no1 [Example 401, N-[(4-{3-[(3R)-3-aminopyrrolidin-1-yl]-1H-pyrazolo[3,4-b]pyridin-4-yl}-2-fluorophenyl)methyl]-5-(2-cyanopropan-2-yl)-1,2-oxazole-3-carboxamide]",885,1280,33.8
"C=CC(=O)N[C@@H]1CCN(c2n[nH]c3nccc(-c4ccc(CNC(=O)c5cc(C(C)(C)C#N)on5)c(F)c4)c23)C1 [Example 402, 5-(2-cyanopropan-2-yl)-N-{[2-fluoro-4-(3-{(3R)-3-[(prop-2-noyl)amino]pyrrolidin-1-yl}-1H-pyrazolo[3,4-b]pyridin-4-yl)phenyl]methyl}-1,2-oxazole-3-carboxamide]",16.9,6.48,0.222
"CC(=O)N[C@@H]1CCN(c2n[nH]c3nccc(-c4ccc(CNC(=O)c5cc(C(C)(C)C#N)on5)c(F)c4)c23)C1 [Example 403, N-[(4-{3-[(3R)-3-acetamidopyrrolidin-1-yl]-1H-pyrazolo[3,4-b]pyridin-4-yl}-2-fluorophenyl)methyl]-5-(2-cyanopropan-2-yl)-1,2-oxazole-3-carboxamide]",1810,1400,17.3
"C[C@@H](NC(=O)c1cc(C(C)(C)O)on1)c1ccc(-c2ccnc3[nH]nc(N4CCOCC4)c23)cc1 [Example 404, 5-(2-hydroxypropan-2-yl)-N-[(1R)-1-{4-[3-(morpholin-4-yl)-1H-pyrazolo[3,4-b]pyridin-4-yl]phenyl}ethyl]-1,2-oxazole-3-carboxamide]",498,685,18
"CC(C)c1noc(C(=O)N[C@H](C)c2ccc(-c3ccnc4[nH]nc(N5CCS(=O)(=O)CC5)c34)cc2)n1 [Example 405, N-[(1R)-1-{4-[3-(1,1-dioxo-1λ^6-thiomorpholin-4-yl)-1H-pyrazolo[3,4-b]pyridin-4-yl]phenyl}ethyl]-3-(propan-2-yl)-1,2,4-oxadiazole-5-carboxamide]",3300,2380,31
"C[C@@H](NC(=O)c1cc(C(C)(C)O)on1)c1ccc(-c2ccnc3[nH]nc(N4CCS(=O)(=O)CC4)c23)cc1 [Example 406, N-[(1R)-1-{4-[3-(1,1-dioxo-1λ^6-thiomorpholin-4-yl)-1H-pyrazolo[3,4-b]pyridin-4-yl]phenyl}ethyl]-5-(2-hydroxypropan-2-yl)-1,2-oxazole-3-carboxamide]",5320,4740,92.9
"CC(=O)N1C[C@H](Nc2n[nH]c3nccc(-c4ccc(CNC(=O)c5nc(C(C)(C)C)no5)c(F)c4)c23)CC[C@@H]1C [Example 408, N-{[4-(3-{[(3R,6S)-1-acetyl-6-methylpiperidin-3-yl]amino}-1H-pyrazolo[3,4-b]pyridin-4-yl)-2-fluorophenyl]methyl}-3-tert-butyl-1,2,4-oxadiazole-5-carboxamide]",874,110,0.413
"C[C@H]1CC[C@@H](Nc2n[nH]c3nccc(-c4ccc(CNC(=O)c5nc(C(C)(C)C)no5)c(F)c4)c23)CN1C(=O)N1CCOCC1 [Example 409, 3-tert-butyl-N-{[2-fluoro-4-(3-{[(3R,6S)-6-methyl-1-(morpholine-4-carbonyl)piperidin-3-yl]amino}-1H-pyrazolo[3,4-b]pyridin-4-yl)phenyl]methyl}-1,2,4-oxadiazole-5-carboxamide]",863,177,0.546
"COC(=O)N1C[C@H](Nc2n[nH]c3nccc(-c4ccc(CNC(=O)c5nc(C(C)(C)C)no5)c(F)c4)c23)CC[C@@H]1C [Example 410, methyl (2S,5R)-5-{[4-(4-{[(3-tert-butyl-1,2,4-oxadiazole-5-carbonyl)amino]methyl}-3-fluorophenyl)-1H-pyrazolo[3,4-b]pyridin-3-yl]amino}-2-methylpiperidine-1-carboxylate]",2020,542,1.08
"C[C@H]1CC[C@@H](Nc2n[nH]c3nccc(-c4ccc(CNC(=O)c5nc(C(C)(C)C)no5)c(F)c4)c23)CN1C1COC1 [Example 411, 3-tert-butyl-N-{[2-fluoro-4-(3-{[(3R,6S)-6-methyl-1-(oxetan-3-yl)piperidin-3-yl]amino}-1H-pyrazolo[3,4-b]pyridin-4-yl)phenyl]methyl}-1,2,4-oxadiazole-5-carboxamide]",9390,2270,9.53
"C[C@H]1CC[C@@H](Nc2n[nH]c3nccc(-c4ccc(CNC(=O)c5ccc(C(C)(C)O)cc5F)c(F)c4)c23)CN1C(=O)N(C)C [Example 414, (2S,5R)-5-{[4-(3-fluoro-4-{[2-fluoro-4-(2-hydroxypropan-2-yl)benzamido]methyl}phenyl)-1H-pyrazolo[3,4-b]pyridin-3-yl]amino}-N,N,2-trimethylpiperidine-1-carboxamide]",3250,1040,59.2
"C[C@H]1CC[C@@H](Nc2n[nH]c3nccc(-c4ccc(CNC(=O)c5nc6c(s5)CCCC6)c(F)c4)c23)CN1C(=O)N(C)C [Example 415, N-{[4-(3-{[(3R,6S)-1-(dimethylcarbamoyl)-6-methylpiperidin-3-yl]amino}-1H-pyrazolo[3,4-b]pyridin-4-yl)-2-fluorophenyl]methyl}-4,5,6,7-tetrahydro-1,3-benzothiazole-2-carboxamide]",3000,2150,28.1
"C[C@H]1CC[C@@H](Nc2n[nH]c3nccc(-c4ccc(CNC(=O)c5cc(C(C)(C)O)on5)c(F)c4)c23)CN1C(=O)N(C)C [Example 418, (2S,5R)-5-({4-[3-fluoro-4-({[5-(2-hydroxypropan-2-yl)-1,2-oxazole-3-carbonyl]amino}methyl)phenyl]-1H-pyrazolo[3,4-b]pyridin-3-yl}amino)-N,N,2-trimethylpiperidine-1-carboxamide]",3820,3080,50.6
"C[C@H]1CC[C@@H](Nc2n[nH]c3nccc(-c4ccc(CNC(=O)c5nc(C(C)(C)C)no5)c(F)c4)c23)CN1C(=O)C1(C)COC1 [Example 419, 3-tert-butyl-N-{[2-fluoro-4-(3-{[(3R,6S)-6-methyl-1-(3-methyloxetane-3-carbonyl)piperidin-3-yl]amino}-1H-pyrazolo[3,4-b]pyridin-4-yl)phenyl]methyl}-1,2,4-oxadiazole-5-carboxamide]",4990,1920,1.87
"C[C@H]1CC[C@@H](Nc2n[nH]c3nccc(-c4ccc(CNC(=O)c5nc(C(C)(C)C)no5)c(F)c4)c23)CN1C(=O)CO [Example 420, 3-tert-butyl-N-{[2-fluoro-4-(3-{[(3R,6S)-1-(hydroxyacetyl)-6-methylpiperidin-3-yl]amino}-1H-pyrazolo[3,4-b]pyridin-4-yl)phenyl]methyl}-1,2,4-oxadiazole-5-carboxamide]",1240,291,0.379
"CC(=O)OCC(=O)N1C[C@H](Nc2n[nH]c3nccc(-c4ccc(CNC(=O)c5nc(C(C)(C)C)no5)c(F)c4)c23)CC[C@@H]1C [Example 421, 2-[(2S,5R)-5-{[4-(4-{[(3-tert-butyl-1,2,4-oxadiazole-5-carbonyl)amino]methyl}-3-fluorophenyl)-1H-pyrazolo[3,4-b]pyridin-3-yl]amino}-2-methylpiperidin-1-yl]-2-oxoethyl acetate]",3130,1190,0.915
